From US20230136297A1, “Methods Of Treating Fabry Disease In Patients Having A Mutation In The GLA Gene” (Amicus Therapeutics, Inc., priority 2020, published 2023)
Numbering of substitutions follows the chain as printed.

Columns and labels:
Assay in all cases: α-Gal A activity in lysates of transfected HEK-293 cells ± migalastat (HEK assay)
Format in all cases: cell-based
[1] = biological target: T1, α-Gal A mutant form D182G (Homo sapiens, UniProt P06280, D182G)
T1 construct: expressed in transfected cells; host or cells: HEK-293
T1 sequence (P06280 32-429 D182G): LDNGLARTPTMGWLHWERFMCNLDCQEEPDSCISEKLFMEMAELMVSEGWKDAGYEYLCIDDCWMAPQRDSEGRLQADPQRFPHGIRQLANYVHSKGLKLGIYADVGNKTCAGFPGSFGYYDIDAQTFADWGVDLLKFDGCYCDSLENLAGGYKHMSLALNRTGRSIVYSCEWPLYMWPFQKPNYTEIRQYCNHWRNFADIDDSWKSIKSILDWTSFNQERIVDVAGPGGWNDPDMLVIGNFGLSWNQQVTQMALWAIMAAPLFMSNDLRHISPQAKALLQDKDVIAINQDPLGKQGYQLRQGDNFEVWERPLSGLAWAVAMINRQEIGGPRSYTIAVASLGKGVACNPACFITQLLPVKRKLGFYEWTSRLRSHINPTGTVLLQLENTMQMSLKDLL
Description: (§1) Such mutations or variants are also referred to herein as “HEK assay amenable” mutations or variants.
(§2) The α-Gal A activity is expressed as the nmoles of free 4-MU released per milligram of protein per hour (nmol/mg/hr).

[2] = biological target: T2, α-Gal A mutant form L180V (Homo sapiens, UniProt P06280, L180V)
T2 construct: expressed in transfected cells; host or cells: HEK-293
T2 sequence (P06280 32-429 L180V): T1 sequence (P06280 32-429 D182G) with L149V, G151D
Description: as §1, §2

[3] = biological target: T3, α-Gal A mutant form N419D (Homo sapiens, UniProt P06280, N419D)
T3 construct: expressed in transfected cells; host or cells: HEK-293
T3 sequence (P06280 32-429 N419D): T1 sequence (P06280 32-429 D182G) with G151D, N388D
Description: as §1, §2

α-Gal A mutant form N53Y = biological target: T4, α-Gal A mutant form N53Y (Homo sapiens, UniProt P06280, N53Y)
T4 construct: expressed in transfected cells; host or cells: HEK-293
T4 sequence (P06280 32-429 N53Y): T1 sequence (P06280 32-429 D182G) with N22Y, G151D
Description: as §1, §2

[4] = biological target: T5, α-Gal A mutant form W209R (Homo sapiens, UniProt P06280, W209R)
T5 construct: expressed in transfected cells; host or cells: HEK-293
T5 sequence (P06280 32-429 W209R): T1 sequence (P06280 32-429 D182G) with G151D, W178R
Description: as §1, §2

[5] = 10 μM migalastat minus baseline
[6] = HEK-293 lysates, 10 μM migalastat 5 days, mean ± SEM

Absolute increase (% WT) [1, 5]: 45.6 % WT
Relative increase ([1]; 10 μM migalastat ÷ baseline): 1.56
10 μM migalastat α-Gal A activity [1, 6]: 43772 ± 4156 nmol/mg/h
10 μM migalastat α-Gal A activity (% WT) [1, 6]: 129.6 ± 9.7 % WT
Absolute increase (% WT) [2, 5]: 36.2 % WT
Relative increase ([2]; 10 μM migalastat ÷ baseline): 1.97
10 μM migalastat α-Gal A activity [2, 6]: 25437 ± 1279 nmol/mg/h
10 μM migalastat α-Gal A activity (% WT) [2, 6]: 73.4 ± 2.9 % WT
Absolute increase (% WT) [3, 5]: 12.6 % WT
Relative increase ([3]; 10 μM migalastat ÷ baseline): 1.37
10 μM migalastat α-Gal A activity [3, 6]: 14558 ± 678 nmol/mg/h
10 μM migalastat α-Gal A activity (% WT) [3, 6]: 44.1 ± 2.9 % WT
Absolute increase (% WT) (α-Gal A mutant form N53Y; [5]): 34.5 % WT
Relative increase (α-Gal A mutant form N53Y; 10 μM migalastat ÷ baseline): 2.04
10 μM migalastat α-Gal A activity (α-Gal A mutant form N53Y; [6]): 22871 ± 2192 nmol/mg/h
10 μM migalastat α-Gal A activity (% WT) (α-Gal A mutant form N53Y; [6]): 68.5 ± 2.6 % WT
Absolute increase (% WT) [4, 5]: 17.5 % WT
Relative increase ([4]; 10 μM migalastat ÷ baseline): 1.25
10 μM migalastat α-Gal A activity [4, 6]: 28729 ± 1293 nmol/mg/h
10 μM migalastat α-Gal A activity (% WT) [4, 6]: 81.1 ± 4.6 % WT
Compound: OC[C@H]1NC[C@H](O)[C@@H](O)[C@H]1O [migalastat, (2R,3S,4R,5S)-2-(hydroxymethyl) piperdine-3,4,5-triol]
